Consider 1 compound from patent US12479866B2, “Boron-containing rho kinase inhibitors” (Percipiad, Inc., priority 2019, dated 2025).

The structures appear in SMILES notation. Values joined by “and” are separate entries in the source; they are usually repeats but may differ in a detail not shown here. Identical values can stand only once. Like-named read-outs stand apart in the source and are kept apart here.

The subject of data set [1] is New Zealand White rabbits. As to the kind of experiment: Phenol-induced chronic model of glaucoma, IOP. The class given is in vivo, rabbit. The text has this: For these efficacy studies methods were followed as described in (Jacob et al, A promising drug candidate for the treatment of glaucoma based on a P2Y6-receptor agonist, Purinergic Signal. 2018 September; 14 (3): 271-284). In all studies, male New Zealand White rabbits were acclimatized for one week before the study. Animals were given food and water ad libitum. Body weights of rabbits ranged from 2 to 3 kg. Animals were trained for the IOP measurement procedure during the acclimation period in order to reduce stress and obtaining more accurate measurements during the study. IOP measurements were taken using the Icare® TONOVET Plus tonometer. […] The technique of use of the […] tonometer in rabbits was described previously (Gloe et al, Validation of the Icare® TONOVET Plus Rebound Tonometer in Normal Rabbit Eyes, Exp Eye Res. 2019 August; 185:107698). IOP readings are obtained only when the tonometer is held an appropriate distance and in the correct plane relative to the ocular surface. Green light appears when the orientation is correct, thereby minimizing operator errors. […] IOP was measured daily after phenol injection and IOP doubled in 8 days after phenol injection. […] IOP readings were taken on mornings of days 8 to 12 before compound application and 0.5 and 1 hour after morning application. […]

A short description of data set [2]: Solubility Assay #1, equilibrium solubility in pH 7.4 aqueous buffer. The following applies: pH 7.4 phosphate buffer, thermodynamic from solid.
Data set [3] is described as follows: Solubility Assay #3, qualitative solubility in borate and citrate buffers. Format: physicochemical. The note with it: borate and citrate buffers at a series of pH values.
A short description of data set [4]: Octanol/buffer partition coefficient (log D7.4). The class given is physicochemical. The following applies: n-octanol / pH 7.4 phosphate buffer, read-out: log D at pH 7.4. The procedure: In a single incubation, 15 μL of a 10 mM DMSO solution of each test article was added to test tubes, which contained 0.75 mL of n-octanol and 0.75 mL of pH 7.4 phosphate buffer. Testosterone was also introduced to each tube as an internal control, also at a dosing concentration of 100 μM. These samples were gently mixed on a benchtop rotator for 1 hour at room temperature. The tubes were then removed from the rotator and the aqueous and organic phases were allowed to separate for 1 hour. […] As a methods control, the log D of testosterone was also measured at a satisfactory value.

The conditions of data set [5]: water, thermodynamic from solid.

Usually solubility stands for the concentration that dissolves in the medium under given conditions. A high value points to much dissolved substance. Regarding `Cl.Cl.NCC(C(=O)Nc1ccc2cnccc2c1)c1ccc(B(O)O)cc1` (stereo not drawn) [Compound 10•2HCl], the “Effect on IOP after first application” value in data set [1] (1 mg/ml (2.34 mM) in saline, day 8 after phenol injection) is recorded as “decrease of IOP to normal levels within 1 hour after application”. The “Effect of subsequent twice daily application on IOP” value in data set [1] (1 mg/ml twice daily, days 8 to 12) was “maintained normal IOP”. Further, the solubility in data set [2] is 39.1 µM; in data set [5], > 100000 µg/mL and > 234000 µM. Also, the “pH at which precipitation occurs” value in data set [3] was about 8.5. Besides, the logD in data set [4] was 0.822.
